Key:
[1] = test system: Progesterone receptor mRNA; assay: Progesterone receptor mRNA regulation in the preoptic area of the rat brain; type: in vivo; settings: 10 mg/kg
[2] = Cytosolic incubation in the presence of PAPS (sulfation), human; type: in vitro ADME; settings: 100 μM, 37° C., 60 mins, with PAPS; human liver cytosol
Procedure: These pilot incubations (1.0 mL incubation volume) were conducted using a substrate concentration of 100 μM ERB-041 at 37° C. for 60 mins. Incubations were terminated by the addition of an equal volume of chilled acetonitrile. Reserved phase-HPLC was utilized for all metabolite analysis. To confirm the formation of glucuronide and sulfate conjugates of ERB-041 in pilot scale incubations, HPLC analysis was performed using an Agilent 1100 LC system equipped with a diode array detector (Agilent Technologies, Wilmington, Del.). […] Rat liver and human liver cytosol incubations produced similar profiles. […] Further confirmation of the identity of the isolated metabolites […] and M9 from the large-scale incubations was obtained using LC-MS analysis (ESI, negative ionization). In the large-scale incubation, approximately 23% of ERB-041 was converted to the two sulfate conjugates. Separation of the two sulfate metabolites was achieved using gradient solvent system C described supra.

[3] = test system: ovulation (number of oocytes ovulated); assay: Ovulation inhibition test procedure; type: in vivo; settings: 50 mg/kg
From the text: The test procedure is used to determine whether test compounds can inhibit or change the timing of ovulation. It can also be used to determine the number of oocytes ovulated [Lundeen, et al., J Steroid Biochem Mol Biol 78: 137-143 (2001)]. The following data were obtained from representative metabolites of compounds from the invention (Table 22).

Lewis rats = assay: Lewis rat adjuvant-induced arthritis, inhibition protocol: joint score (maximal score per day 12); type: in vivo
[4] = Cytosolic incubation in the presence of PAPS (sulfation), rat; type: in vitro ADME
Procedure: These pilot incubations (1.0 mL incubation volume) were conducted using a substrate concentration of 100 μM ERB-041 at 37° C. for 60 mins. Incubations were terminated by the addition of an equal volume of chilled acetonitrile. Large-scale incubations (a total of 60 incubations @ 1.0 mL incubation volume) to generate sufficient quantities of the sulfate metabolites for structure elucidation were subsequently conducted as described above at 37° C. for 60 mins. Appropriate substrate controls and incubations without addition of PAPS were conducted. Additional incubations (a total of 120 @ 2.0 mL incubation volume, 50 μM ERB-041) were also conducted in a similar manner to isolate sufficient amounts of ERB-041-sulfates to enable full structural identification. Reserved phase-HPLC was utilized for all metabolite analysis. To confirm the formation of glucuronide and sulfate conjugates of ERB-041 in pilot scale incubations, HPLC analysis was performed using an Agilent 1100 LC system equipped with a diode array detector (Agilent Technologies, Wilmington, Del.). […] Rat liver and human liver cytosol incubations produced similar profiles. […] Further confirmation of the identity of the isolated metabolites […] and M9 from the large-scale incubations was obtained using LC-MS analysis (ESI, negative ionization). […]

Female Mongolian gerbils = assay: Transient global ischemia in the Mongolian gerbil: neurogranin mRNA in hippocampus; type: in vivo; settings: gerbil hippocampus after 5 min global ischemia; s.c. daily
Procedure: Transient global ischemia in the Mongolian gerbil. The effect of test compounds on preventing or treating brain injury in response to oxygen deprivation/reperfusion were measured using the following test procedure.
Female Mongolian gerbils (60-80 g; Charles River Laboratories, Kingston, N.Y.) were housed in the Wyeth-Ayerst animal care facility Association for Assessment and Acreditation of Laboratory Animal Care (AAALAC) certified with a 12-hour light, 12-hour dark photoperiod and free access to tap water and a low-estrogen casein diet (Purina®; Richmond, Ind.). After acclimation (3-5 days), gerbils were anesthetized with isoflurane (2-3% mixture with O2), ovariectomized (Day 0). […] On Day 6, gerbils (n=4-5/group) were anesthetized with isoflurane, the common carotid arteries visualized via a mid-line neck incision and both arteries simultaneously occluded for 5 minutes with non-traumatic micro aneurysm clips. […]
The degree of neuronal protection was evaluated by in situ hybridization analysis of neurogranin mRNA. […]
Neurogranin mRNA was selected for these studies because it is highly expressed in the hippocampal neurons including CA1, but absent in glia and other cell types present in this brain region. […] The results from 6 sections (40 μm apart) per animal were averaged and statistically evaluated. […]

For Oc1cc(Br)c2oc(-c3ccc(O)c(F)c3)nc2c1 [Example 21, 7-BROMO-2-(3-FLUORO-4-HYDROXYPHENYL)-1,3-BENZOXAZOL-5-OL], the “Progesterone receptor mRNA (mean ± stdev)” value [1] was 110.5 ± 19.3 arbitrary units.

In the case of C=Cc1cc(O)cc2nc(-c3ccc(O)c(F)c3)oc12 [Example 24, 2-(3-FLUORO-4-HYDROXYPH ENYL)-7-VI NYL-1,3-BENZOXAZOL-5-OL], the Metabolites detected [2] is reported as “two metabolites (M9A and M9) were detected”, the “Number of oocytes (mean ± SEM)” value [3] is reported as 13.86 ± 0.77 and the Joint inflammation score (Lewis rats; s.c. daily from Day 1, Day 1) is reported as 0.00. For the same compound, the Joint inflammation score (Lewis rats; s.c. daily from Day 1, Day 2) was 1.00, the Joint inflammation score (Lewis rats; s.c. daily from Day 1, Day 3) was 4.50 and the Joint inflammation score (Lewis rats; s.c. daily from Day 1, Day 4) was 4.83. For the same compound, the Joint inflammation score (Lewis rats; s.c. daily from Day 1, Day 5) was 5.83, the Joint inflammation score (Lewis rats; s.c. daily from Day 1, Day 6) was 6.16 and the Joint inflammation score (Lewis rats; s.c. daily from Day 1, Day 7) was 6.16. It also gave a Joint inflammation score (Lewis rats; s.c. daily from Day 1, Day 8) of 5.33, a Joint inflammation score (Lewis rats; s.c. daily from Day 1, Day 9) of 5.66 and a Joint inflammation score (Lewis rats; s.c. daily from Day 1, Day 10) of 4.33. It also gave a Joint inflammation score (Lewis rats; s.c. daily from Day 1, Day 11) of 3.16, a Joint inflammation score (Lewis rats; s.c. daily from Day 1, Day 12) of 3.16 and a Joint inflammation score (Lewis rats; s.c. daily from Day 1, Day 13) of 2.16. The Joint inflammation score (Lewis rats; s.c. daily from Day 1, Day 14) was 3.33, the Joint inflammation score (Lewis rats; s.c. daily from Day 1, Day 15) was 3.00 and the Joint inflammation score (Lewis rats; s.c. daily from Day 1, Day 16) was 1.66. The Joint inflammation score (Lewis rats; s.c. daily from Day 1, Day 17) was 1.50, the Metabolites detected ([4]; 100 μM, 37° C., 60 mins, with PAPS, rat liver cytosol) was “two metabolites (M9A and M9) were detected” and the “converted to the two sulfate conjugates” value ([4]; large-scale incubation with PAPS) was “approximately 23%”. For the same compound, the “Neurogranin mRNA (mean ± stdev)” value (Female Mongolian gerbils) was 0.0 arbitrary units.

Reference: patent US20060046968A1, “Prodrug substituted benzoxazoles as estrogenic agents” (priority 2004, published 2006)
